Reference: ChEMBL document CHEMBL1123875, “Plant antitumor agents. 25. Total synthesis and antileukemic activity of ring A substituted camptothecin analogues. Structure-activity correlations” (J Med Chem, 1987)
Values after ≈ are worked out from the molar mass of the structure shown. Active and inactive are the calls of the source. The calls are words filed in the database; no cut-off is given here.

Key:
L1210 [1] = assay: Toxic dose against L1210 mouse leukemia cells was determined; assay type: toxicity
L1210 [2] = assay: Active dose range for antileukemic activity against L1210 mouse leukemia cells was reported; dose range may vary from 7.5 to 15.5; assay type: functional
Mus musculus [3] = assay: In vivo antileukemic activity against L-1210 mouse leukemia cells expressed as % T/C (median survival time of treated/control animals) x 100 after 15.5 mg/kg administration of dose; assay type: functional
Mus musculus [4] = assay: In vivo antileukemic activity against L-1210 mouse leukemia cells expressed as KE (log10 of initial tumor cell population minus log10 of tumor cell population at end of treatment); assay type: functional
Mus musculus [5] = assay: In vivo antileukemic activity against L-1210 mouse leukemia cells given as number of animals cured out of 6; assay type: functional
[6] = In vitro cytotoxic activity against KB cell culture.; assay type: functional; details: Homo sapiens, read-out: ED50 (the source's name)
Mus musculus [7] = assay: In vivo antileukemic activity against L-1210 mouse leukemia cells expressed as % T/C (median survival time of treated/control animals) x 100 after 10 mg/kg administration of dose; assay type: functional
L1210 [8] = assay: Active dose range for antileukemic activity against L1210 mouse leukemia cells was reported; dose range may vary from 10 to 80; assay type: functional
Mus musculus [9] = assay: (§1) In vivo antileukemic activity against L-1210 mouse leukemia cells expressed as % T/C (median survival time of treated/control animals) x 100; IA means inactive; assay type: functional, organism-based
Mus musculus [10] = assay: In vivo antileukemic activity against L-1210 mouse leukemia cells expressed as % T/C (median survival time of treated/control animals) x 100; assay type: functional
Mus musculus [11] = assay: In vivo antileukemic activity against L-1210 mouse leukemia cells and number of animals cured out of 6; assay type: functional
L1210 [12] = assay: Active dose range for antileukemic activity against L1210 mouse leukemia cells was reported; assay type: functional
Mus musculus [13] = assay: In vivo antileukemic activity against L-1210 mouse leukemia cells expressed as […] (log10 of initial tumor cell population minus log10 of tumor cell population at end of treatment); assay type: functional
Mus musculus [14] = assay: In vivo antileukemic activity against L-1210 mouse leukemia cells expressed as % T/C (median survival time of treated/control animals) x 100 after 80 mg/kg administration of dose; assay type: functional
L1210 [15] = assay: Active dose range for antileukemic activity against L1210 mouse leukemia cells was reported; dose range may vary from 20 to 80; assay type: functional
L1210 [16] = assay: Active dose range for antileukemic activity against L1210 mouse leukemia cells was reported; dose range may vary from 10 to 20; assay type: functional
KB [17] = assay: In vitro cytotoxic activity against KB cell culture, expressed as ED50 (concentration resulting in a 50% cell number reduction) was determined; IA means inactive; assay type: functional, cell-based; details: Homo sapiens
Mus musculus [18] = assay: In vivo antileukemic activity against L-1210 mouse leukemia cells expressed as % T/C (median survival time of treated/control animals) x 100 after 40 mg/kg administration of dose; assay type: functional
Mus musculus [19] = assay: as §1; assay type: functional, organism-based; remark: listed apart in the source
L1210 [20] = assay: In vivo antileukemic activity against L-1210 mouse leukemia cells expressed as % T/C (median survival time of treated/control animals) x 100; In active; assay type: functional, organism-based
L1210 [21] = assay: Active dose range for antileukemic activity against L1210 mouse leukemia cells was reported; dose range may vary from 0.25 to 5.0; assay type: functional
Mus musculus [22] = assay: In vivo antileukemic activity against L-1210 mouse leukemia cells expressed as % T/C (median survival time of treated/control animals) x 100 after 2.5 mg/kg administration of dose; assay type: functional
L1210 [23] = assay: Active dose range for antileukemic activity against L1210 mouse leukemia cells was reported; dose range may vary from 7.5 to 60; assay type: functional
Mus musculus [24] = assay: In vivo antileukemic activity against L-1210 mouse leukemia cells expressed as % T/C (median survival time of treated/control animals) x 100 after 60 mg/kg administration of dose; assay type: functional
L1210 [25] = assay: Active dose range for antileukemic activity against L1210 mouse leukemia cells was reported; dose range may vary from 2 to 15.5; assay type: functional
Mus musculus [26] = assay: In vivo antileukemic activity against L-1210 mouse leukemia cells expressed as % T/C (median survival time of treated/control animals) x 100 after 3.75 mg/kg administration of dose; assay type: functional
KB [27] = assay: In vitro cytotoxic activity against KB cell culture, expressed as ED50 (concentration resulting in a 50% cell number reduction) was determined; In active; assay type: functional, cell-based; details: Homo sapiens
L1210 [28] = assay: Active dose range for antileukemic activity against L1210 mouse leukemia cells was reported 2 to 4; assay type: functional
Mus musculus [29] = assay: In vivo antileukemic activity against L-1210 mouse leukemia cells expressed as % T/C (median survival time of treated/control animals) x 100 after 2 mg/kg administration of dose; assay type: functional

Row | SMILES | Toxic dose (L1210 [1]) [mg/kg] | KE (Mus musculus [4]) [log10 units] | No. of cures (Mus musculus [5]) | EC50 [6] [µg/mL] | other results
1 | CCC1(O)C(=O)OCc2c1cc1n(c2=O)Cc2cc3cc([N+](=O)[O-])ccc3nc2-1 (centres undefined) | 31 | ≥ 5.86 | 1 | 0.3 (≈ 0.763 µM) | Active dose range (L1210 [2]): 15.5 mg/kg; T/C (Mus musculus [3]): 219%
2 | CCC1(O)C(=O)OCc2c1cc1n(c2=O)Cc2cc3cc(C)ccc3nc2-1 (centres undefined) | > 80 | 4.66 | 0 | 0.08 (≈ 0.221 µM) | T/C (Mus musculus [7]): 207%; Active dose range (L1210 [8]): 80 mg/kg
3 | CCC1(O)C(=O)OCc2c1cc1n(c2=O)Cc2cc3ccc(CN)cc3nc2-1.Cl (centres undefined) |  |  |  | 4 | 
4 | CCC1(O)C(=O)OCc2c1cc1n(c2=O)Cc2cc3ccc(C(F)(F)F)cc3nc2-1 (centres undefined) |  |  |  | 0.9 (≈ 2.16 µM) | T/C (Mus musculus [9]): inactive
5 | CCC1(O)C(=O)OCc2c1cc1n(c2=O)Cc2cc3cc(O)c(O)cc3nc2-1 (centres undefined) | > 80 |  |  | 1 (≈ 2.63 µM) | T/C (Mus musculus [10]): 153%; No. of cures (Mus musculus [11]): 1; Active dose range (L1210 [12]): 10 mg/kg; T/C (Mus musculus [13]): 0.87%
6 | CCC1(O)C(=O)OCc2c1cc1n(c2=O)Cc2cc3ccc([N+](=O)[O-])cc3nc2-1 (centres undefined) | > 80 | 0.29 | 0 | 3 (≈ 7.63 µM) | T/C (Mus musculus [14]): 147%; Active dose range (L1210 [15]): 80 mg/kg
7 | CCC1(O)C(=O)OCc2c1cc1n(c2=O)Cc2cc3ccc(C#N)cc3nc2-1 (centres undefined) | 20 | ≥ 5.79 | 3 | 0.3 (≈ 0.803 µM) | Active dose range (L1210 [16]): <=20 mg kg-1; T/C (Mus musculus [7]): 365%
8 | CCC1(O)C(=O)OCc2c1cc1n(c2=O)Cc2cc3ccc(N(C)C)cc3nc2-1 (centres undefined) |  |  |  |  | ED50 (KB [17]): inactive; T/C (Mus musculus [9]): inactive
9 | CCC1(O)C(=O)OCc2c1cc1n(c2=O)Cc2cc3ccc(N)cc3nc2-1 (centres undefined) | > 80 | 0.29 | 0 | 0.02 (≈ 0.055 µM) | T/C (Mus musculus [18]): 147%; Active dose range (L1210 [8]): 80 mg/kg
10 | CCC1(O)C(=O)OCc2c1cc1n(c2=O)Cc2cc3ccc(CO)cc3nc2-1 (centres undefined) |  |  |  | 0.3 (≈ 0.793 µM) | T/C (Mus musculus [9]): inactive
11 | CCC1(O)C(=O)OCc2c1cc1n(c2=O)Cc2cc3ccc(C(=O)[O-])cc3nc2-1.[Na+] (centres undefined) |  |  |  | 0.3 | T/C (Mus musculus [19]): inactive; ED50 (KB [17]): inactive; T/C (Mus musculus [9]): inactive
12 | CCC1(O)C(=O)OCc2c1cc1n(c2=O)Cc2cc3ccc(C=O)cc3nc2-1 (centres undefined) |  |  |  | 5 (≈ 13.3 µM) | T/C (L1210 [20]): inactive
13 | CCC1(O)C(=O)OCc2c1cc1n(c2=O)Cc2cc3ccc(C(=O)OC)cc3nc2-1 (centres undefined) |  |  |  | 5 (≈ 12.3 µM) | T/C (Mus musculus [9]): inactive
14 | CC[C@@]1(O)C(=O)OCc2c1cc1n(c2=O)Cc2cc3c(N)cccc3nc2-1 [9-AMINOCAMPTOTHECIN] | 10 | ≥ 5.97 | 4 | 0.02 (≈ 0.055 µM) | Active dose range (L1210 [21]): 5 mg/kg; T/C (Mus musculus [22]): 361%
15 | CCC1(O)C(=O)OCc2c1cc1n(c2=O)Cc2cc3cc(OC)c(OC)cc3nc2-1 (centres undefined) |  |  |  | 9 (≈ 22 µM) | T/C (Mus musculus [9]): inactive
16 | CCC1(O)C(=O)OCc2c1cc1n(c2=O)Cc2cc3ccc(CN)cc3nc2-1 (centres undefined) [listing 1 of 2 here] |  |  |  |  | T/C (Mus musculus [9]): inactive
17 | CCC1(O)C(=O)OCc2c1cc1n(c2=O)Cc2cc3ccc(CN)cc3nc2-1 (centres undefined) [listing 2 of 2 here] |  |  |  | 2 (≈ 5.3 µM) | 
18 | CCC1(O)C(=O)OCc2c1cc1n(c2=O)Cc2cc3ccc(C)cc3nc2-1 (centres undefined) | > 80 | -0.68 | 0 | 0.9 (≈ 2.48 µM) | Active dose range (L1210 [15]): 80 mg/kg; T/C (Mus musculus [18]): 136%
19 | CCC1(O)C(=O)OCc2c1cc1n(c2=O)Cc2cc3ccc(O)cc3nc2-1 (centres undefined) | > 60 | ≥ 5.68 | 3 | 0.02 (≈ 0.0549 µM) | Active dose range (L1210 [23]): 60 mg/kg; T/C (Mus musculus [24]): 357%
20 | CCC1(O)C(=O)OCc2c1cc1n(c2=O)Cc2cc3cc(N)ccc3nc2-1 (centres undefined) | 32 | ≥ 5.97 | 3 | 0.03 (≈ 0.0826 µM) | Active dose range (L1210 [25]): 15.5 mg/kg; T/C (Mus musculus [26]): 365%
21 | CCC1(O)C(=O)OCc2c1cc1n(c2=O)Cc2cc3ccc(/C=N\N=C(N)N)cc3nc2-1 (racemic) |  |  |  |  | T/C (L1210 [20]): inactive; ED50 (KB [27]): inactive
22 | CCC1(O)C(=O)OCc2c1cc1n(c2=O)Cc2cc3cc4c(cc3nc2-1)OCO4 (centres undefined) | > 8 | ≥ 5.97 | 2 | 0.007 (≈ 0.0178 µM) | Active dose range (L1210 [28]): 4 mg/kg; T/C (Mus musculus [29]): 325%
23 | CCC1(O)C(=O)OCc2c1cc1n(c2=O)Cc2cc3cc(Cl)ccc3nc2-1 (centres undefined) | 40 | ≥ 5.97 | 2 | 0.01 (≈ 0.0261 µM) | Active dose range (L1210 [16]): 20 mg/kg; T/C (Mus musculus [7]): 280%
24 | Br.CCC1(O)C(=O)OCc2c1cc1n(c2=O)Cc2cc3cc(O)c(O)cc3nc2-1 (centres undefined) | > 80 |  |  | 3 | T/C (Mus musculus [10]): 173%; No. of cures (Mus musculus [11]): 0; Active dose range (L1210 [12]): 10 mg/kg; T/C (Mus musculus [13]): 2.62%
